Reference: patent publication US10702506B2, “Small molecule inhibitors of pendrin ion exchange and pharmaceutical compositions” (THE REGENTS OF THE UNIVERSITY OF CALIFORNIA, priority 2016, dated 2020)

Tested on: HBE and CFBE cell cultures
Test: ASL depth by confocal imaging of rhodamine B-dextran in HBE and CFBE cultures
Format: cell-based, human
Settings: 25 μM, 4-6 hours
Method: ASL depth was measured in HBE and CFBE cell cultures under basal conditions and with chronic IL-13-treatment. […] Treatment of HBE and CFBE cell cultures with IL-13 produced a significant increase in ASL depth to ˜16 μm. Remarkably, treatment of IL-13-treated HBE and CFBE cell cultures with PDSinh-A01 produced a significant further increase in ASL depth of ˜8 μm (FIG. 6A, right; summary in FIG. 6B). Pendrin inhibition thus causes ASL hydration in IL-13-treated HBE and CFBE cell cultures, providing pharmacological evidence for pendrin as a key regulator of ASL hydration in airway cell cultures exposed to an inflammatory stimulant.
ASL depth was measured by confocal imaging of rhodamine B-dextran fluorescence (20 μl of 0.1 mg/ml in PBS) applied 4-6 h prior to measurement. Scanning confocal microscopy was done using an upright Nikon EZ-C1 confocal microscope equipped with a LUMplan FL N 60×/1.00w objective (Olympus, Waltham, Mass.). […] In some experiments ASL depth was measured after treatment with 25 μM PDSinh-A01 in the culture medium for 4-6 hours. ASL depth was measured using a multi-point histogram method in which each confocal z-stack was fitted to a quadratic function, as described and validated previously.

With `Cn1nc(COc2cccc(F)c2)c2c1CCN(C(=O)Nc1ccc(Cl)cc1)C2` [PDSinh-A01] the “further increase in ASL depth, IL-13-treated cultures” value (IL-13-treated) was about 8 μm and the “effect on ASL depth, basal conditions” value (no IL-13) was “did not significantly change”.
